Calls of active or inactive are those of the source. The rule behind the calls is not given here.

The subject of this data set is CCRIS mutagenicity, Ames/micronucleus/aberration tests. Nature of the data set: CCRIS mutagenicity studies.
Setting [1] is: Test System: AMES SALMONELLA TYPHIMURIUM, Strain/Indicator: TA98, Metabolic Activation: NONE, Method: PREINCUBATION
[2] abbreviates: Test System: AMES SALMONELLA TYPHIMURIUM, Strain/Indicator: TA100, Metabolic Activation: NONE, Method: PREINCUBATION
Where [3] appears, read: Test System: AMES SALMONELLA TYPHIMURIUM, Strain/Indicator: TA98, Metabolic Activation: NONE, Method: STANDARD PLATE.
Setting [4] is: Test System: AMES SALMONELLA TYPHIMURIUM, Strain/Indicator: TA98, Metabolic Activation: RAT, LIVER, S-9, AROCLOR 1254, Method: STANDARD PLATE.
The mark [5] stands for this setting: Test System: AMES SALMONELLA TYPHIMURIUM, Strain/Indicator: TA100, Metabolic Activation: NONE, Method: STANDARD PLATE.
[6] abbreviates: Test System: AMES SALMONELLA TYPHIMURIUM, Strain/Indicator: TA100, Metabolic Activation: RAT, LIVER, S-9, AROCLOR 1254, Method: STANDARD PLATE.

Take `Cc1cc2cc3cc(C)c(N)cc3nc2cc1N`: the mutagenic call by setting is: (Test System: AMES SALMONELLA TYPHIMURIUM, Strain/Indicator: TA98, Method: PREINCUBATION) “active; positive”; (Test System: AMES SALMONELLA TYPHIMURIUM, Strain/Indicator: TA100, Method: PREINCUBATION) “active; positive”.
Take `Clc1cc2c3nc4[n-]c(nc5nc(nc6nc(nc([n-]3)c2c(Cl)c1Cl)-c1c(Cl)c(Cl)c(Cl)c(Cl)c1-6)-c1c(Cl)c(Cl)c(Cl)c(Cl)c1-5)c1c(Cl)c(Cl)c(Cl)c(Cl)c41.[Cu+2]`: the mutagenic call runs as follows: (Test System: AMES SALMONELLA TYPHIMURIUM, Strain/Indicator: TA98, Metabolic Activation: HAMSTER, LIVER, S-9, AROCLOR 1254 (30%), Method: PREINCUBATION) “active; positive”; under setting [1], “inactive; negative”; (Test System: AMES SALMONELLA TYPHIMURIUM, Strain/Indicator: TA98, Metabolic Activation: RAT, LIVER, S-9, AROCLOR 1254 (30%), Method: PREINCUBATION) “active; positive”; (Test System: AMES SALMONELLA TYPHIMURIUM, Strain/Indicator: TA100, Metabolic Activation: HAMSTER, LIVER, S-9, AROCLOR 1254 (30%), Method: PREINCUBATION) “inactive; negative”; under setting [2], “inactive; negative”; (Test System: AMES SALMONELLA TYPHIMURIUM, Strain/Indicator: TA100, Metabolic Activation: RAT, LIVER, S-9, AROCLOR 1254 (30%), Method: PREINCUBATION) “inactive; negative”.
As to `Cc1ccccc1C(=O)Cl`, the mutagenic call runs as follows: under setting [1], “inactive; negative”; (Test System: AMES SALMONELLA TYPHIMURIUM, Strain/Indicator: TA98, Metabolic Activation: RAT LIVER S-9, PCB, Method: PREINCUBATION) “active; positive”; under setting [2], “inactive; negative”; (Test System: AMES SALMONELLA TYPHIMURIUM, Strain/Indicator: TA100, Metabolic Activation: RAT LIVER S-9, PCB, Method: PREINCUBATION) “active; positive”; (Test System: AMES SALMONELLA TYPHIMURIUM, Strain/Indicator: TA104, Metabolic Activation: NONE, Method: PREINCUBATION) “inactive; negative”; (Test System: AMES SALMONELLA TYPHIMURIUM, Strain/Indicator: TA104, Metabolic Activation: RAT LIVER S-9, PCB, Method: PREINCUBATION) “active; positive”. In addition, the mutagenic call runs as follows: (Test System: E.COLI, Strain/Indicator: WP2 UVRA, Metabolic Activation: NONE, Method: PREINCUBATION) “active; positive”; (Test System: E.COLI, Strain/Indicator: WP2 UVRA, Metabolic Activation: RAT LIVER S-9, PCB, Method: PREINCUBATION) “active; positive”.
For the compound `Cc1cc2ncccc2c2ncn(C)c12`, the mutagenic call is “inactive; negative” under setting [1]; “inactive; negative” (Test System: AMES SALMONELLA TYPHIMURIUM, Strain/Indicator: TA98, Metabolic Activation: RAT, LIVER, S-9, AROCLOR 1254, Method: PREINCUBATION); “inactive; negative” under setting [2]; “inactive; negative” (Test System: AMES SALMONELLA TYPHIMURIUM, Strain/Indicator: TA100, Metabolic Activation: RAT, LIVER, S-9, AROCLOR 1254, Method: PREINCUBATION).
Turning to `N#Cc1c(Cl)cccc1Cl`, the mutagenic call by setting is: (Test System: AMES SALMONELLA TYPHIMURIUM, Strain/Indicator: TA97, Metabolic Activation: NONE, Method: STANDARD PLATE) “inactive; negative”; (Test System: AMES SALMONELLA TYPHIMURIUM, Strain/Indicator: TA97, Metabolic Activation: RAT, LIVER, S-9, AROCLOR 1254, Method: STANDARD PLATE) “inactive; negative”; under setting [3], “inactive; negative”; under setting [4], “inactive; negative”; under setting [5], “inactive; negative”; under setting [6], “inactive; negative”. Moreover, the mutagenic call was “inactive; negative” (Test System: AMES SALMONELLA TYPHIMURIUM, Strain/Indicator: TA102, Metabolic Activation: NONE, Method: STANDARD PLATE) and “inactive; negative” (Test System: AMES SALMONELLA TYPHIMURIUM, Strain/Indicator: TA102, Metabolic Activation: RAT, LIVER, S-9, AROCLOR 1254, Method: STANDARD PLATE).
Take `C[C@H]1[C@H](C)CC[C@]2(C(=O)O[C@@H]3O[C@H](CO[C@@H]4O[C@H](CO)[C@@H](O[C@@H]5O[C@@H](C)[C@H](O)[C@@H](O)[C@H]5O)[C@H](O)[C@H]4O)[C@@H](O)[C@H](O)[C@H]3O)CC[C@]3(C)C(=CC[C@@H]4[C@@]5(C)C[C@@H](O)[C@H](O)[C@@](C)(CO)[C@@H]5CC[C@]43C)[C@H]12`: the mutagenic call was “inactive; negative” (End Point: IN VITRO CHROMOSOMAL ABERRATIONS, Test System: CHL CELLS, Metabolic Activation: NONE); “inactive; negative” (End Point: IN VITRO CHROMOSOMAL ABERRATIONS, Test System: CHL CELLS, Metabolic Activation: RAT, LIVER, S-9, AROCLOR 1254); “inactive; negative” (End Point: IN VIVO MICRONUCLEUS, Test System: BONE MARROW, Species: MOUSE, Strain/Sex: ICR, Route: GAVAGE); “inactive; negative” under setting [3]; “inactive; negative” under setting [4]; “inactive; negative” under setting [5]. Besides, the mutagenic call under setting [6] is “inactive; negative”; the mutagenic call (Test System: AMES SALMONELLA TYPHIMURIUM, Strain/Indicator: TA1535, Metabolic Activation: NONE, Method: STANDARD PLATE) is “inactive; negative”; the mutagenic call (Test System: AMES SALMONELLA TYPHIMURIUM, Strain/Indicator: TA1535, Metabolic Activation: RAT, LIVER, S-9, AROCLOR 1254, Method: STANDARD PLATE) is “inactive; negative”; the mutagenic call (Test System: AMES SALMONELLA TYPHIMURIUM, Strain/Indicator: TA1537, Metabolic Activation: NONE, Method: STANDARD PLATE) is “inactive; negative”; the mutagenic call (Test System: AMES SALMONELLA TYPHIMURIUM, Strain/Indicator: TA1537, Metabolic Activation: RAT, LIVER, S-9, AROCLOR 1254, Method: STANDARD PLATE) is “inactive; negative”; the mutagenic call (Test System: E. COLI, Strain/Indicator: WP2UVRA, Metabolic Activation: RAT, LIVER, S-9, AROCLOR 1254, Method: STANDARD PLATE) is “inactive; negative”. Moreover, the mutagenic call (Test System: E.COLI, Strain/Indicator: WP2UVRA, Metabolic Activation: NONE, Method: STANDARD PLATE) was “inactive; negative”.
With `O[C@H]1[C@H]2O[C@H]2c2ccc3c(ccc4ccccc43)c2[C@@H]1O`, the mutagenic call is, setting by setting: under setting [1], “active; positive”; (Test System: CHINESE HAMSTER V-79, Strain/Indicator: V-79/6-THIOGUANINE, Metabolic Activation: NONE) “active; positive”.
As for `O=C=Nc1cccc2c(N=C=O)cccc12`, the mutagenic call by setting is: under setting [1], “inactive; negative”; (Test System: AMES SALMONELLA TYPHIMURIUM, Strain/Indicator: TA98, Metabolic Activation: RAT LIVER S-9, PHENOBARBITAL AND BETA-NAPHTHOFLAVONE, Method: PREINCUBATION) “inactive; negative”; under setting [2], “inactive; negative”; (Test System: AMES SALMONELLA TYPHIMURIUM, Strain/Indicator: TA100, Metabolic Activation: RAT LIVER S-9, PHENOBARBITAL AND BETA-NAPHTHOFLAVONE, Method: PREINCUBATION) “inactive; negative”; (Test System: AMES SALMONELLA TYPHIMURIUM, Strain/Indicator: TA1535, Metabolic Activation: NONE, Method: PREINCUBATION) “inactive; negative”; (Test System: AMES SALMONELLA TYPHIMURIUM, Strain/Indicator: TA1535, Metabolic Activation: RAT LIVER S-9, PHENOBARBITAL AND BETA-NAPHTHOFLAVONE, Method: PREINCUBATION) “inactive; negative”. Moreover, the mutagenic call is, setting by setting: (Test System: AMES SALMONELLA TYPHIMURIUM, Strain/Indicator: TA1537, Metabolic Activation: NONE, Method: PREINCUBATION) “inactive; negative”; (Test System: AMES SALMONELLA TYPHIMURIUM, Strain/Indicator: TA1537, Metabolic Activation: RAT LIVER S-9, PHENOBARBITAL AND BETA-NAPHTHOFLAVONE, Method: PREINCUBATION) “inactive; negative”; (Test System: AMES SALMONELLA TYPHIMURIUM, Strain/Indicator: TA1538, Metabolic Activation: NONE, Method: PREINCUBATION) “inactive; negative”; (Test System: AMES SALMONELLA TYPHIMURIUM, Strain/Indicator: TA1538, Metabolic Activation: RAT LIVER S-9, PHENOBARBITAL AND BETA-NAPHTHOFLAVONE, Method: PREINCUBATION) “inactive; negative”; (Test System: E.COLI, Strain/Indicator: WP2UVRA, Metabolic Activation: NONE, Method: PREINCUBATION) “inactive; negative”; (Test System: E.COLI, Strain/Indicator: WP2UVRA, Metabolic Activation: RAT LIVER S-9, PHENOBARBITAL AND BETA-NAPHTHOFLAVONE, Method: PREINCUBATION) “inactive; negative”.
